Laboratory results reported in the supplement of paper PMC11208160.

test: recombinant UMI read abundance after kanamycin selection (control-corrected) (log10(CPM+1)); higher = more efficient recombination; extreme values may be limits of the assay; sequences stand for … in AGTGCAGAGAAAATCGGCCAGTTTTCTCTGCCTGCAGTCCGCATGCCGTGGGACCCCTTGGGTTCTAACCTGTTGCCTAGATTTATGCAGCGGACTGCCTTTCTCCCAAAGTGATAAACCGG…AGGTTGGTTTCACT; site = the 11-nt donor
Protocol: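 Pooled E. coli donor-specificity screen for the IS621 bridge recombinase. Each library member carries a reprogrammed 11-nt donor and a full-length LE bridge RNA expressed in cis from the natural promoter, with a paired donor-binding loop (8-nt LDG + 4-nt RDG) and a target-binding loop fixed to T5. It is co-electroporated with a T5 target plasmid; recombinase is induced with 0.07 mM IPTG and recombinants are selected on kanamycin. UMIs are counted as CPM, averaged over two biological replicates and corrected by the unselected control. Molecule = full bridge RNA written as DNA, built from the T5 scaffold: LDG = donor specificity nt 1-8, RDG = reverse complement of nt 8-11.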
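Also: IS621 bridge recombinase in Escherichia coli cells against a fixed T5 target plasmid.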

“ATAAGGCCATGGACCGGTTTTCCCGGTAATCCGTATTTGAC (site ATCAGGCCTGT)” and “CATTTGGCATGGACCGGTTTTCCCGGTAATCCGTATTTGCT (site CCTTTGGCTAG)” are the same in “recombinant UMI read abundance (log10)” value: 0 for the first, 0 for the second.

“TTTCGAGCATGGACCGGTTTTCCCGGTAATCCGTATTTGCA (site CTTCGAGCTTG)” and “CCCGGTCCATGGACCGGTTTTCCCGGTAATCCGTATTTGCA (site CCCGGTCCTTC)” are within 0.2 log units of each other in “recombinant UMI read abundance (log10)” value: 0.13 for the first, 0 for the second.

“GGTTGCCCATGGACCGGTTTTCCCGGTAATCCGTATTTGAT (site GATTGCCCTAT)” and “TGTAGACCATGGACCGGTTTTCCCGGTAATCCGTATTTGAC (site TGTATACCTGT)” are within 0.2 log units of each other in “recombinant UMI read abundance (log10)” value: 0.0175 for the first, 0 for the second.

Compared with “GCAAACCCATGGACCGGTTTTCCCGGTAATCCGTATTTGAT (site GCAAACCCTAT)”, “GTTCTTCCATGGACCGGTTTTCCCGGTAATCCGTATTTGGT (site GTTATTCCTAC)” is lower in “recombinant UMI read abundance (log10)” value: 1.75 for the first, 0.00339 for the second.

Going from “TAGCTAGCATGGACCGGTTTTCCCGGTAATCCGTATTTGAA (site TAACTAGCTTT)” to “AAGAGGACATGGACCGGTTTTCCCGGTAATCCGTATTTGCA (site AGGAAGACTTG)”, the “recombinant UMI read abundance (log10)” value rises from 0.822 to 1.62.

Going from “GAAGGGACATGGACCGGTTTTCCCGGTAATCCGTATTTGCA (site GAAGGGACTTG)” to “GACAGCTCATGGACCGGTTTTCCCGGTAATCCGTATTTGTC (site GACAGCTCTGA)”, the “recombinant UMI read abundance (log10)” value falls from 2.41 to 1.15.

“CACTTGGCATGGACCGGTTTTCCCGGTAATCCGTATTTGGG (site CACTTGGCTTC)” and “TTGCGGGCATGGACCGGTTTTCCCGGTAATCCGTATTTGGG (site TTGCGGGCTCC)” are within 0.2 log units of each other in “recombinant UMI read abundance (log10)” value: 0.0398 for the first, 0.00376 for the second.

First: ACAAGTGCATGGACCGGTTTTCCCGGTAATCCGTATTTGAC (site ACAAGTGCTGT)
Second: TCAGTTTCATGGACCGGTTTTCCCGGTAATCCGTATTTGCA (site TCAGTTTCTTG)
The “recombinant UMI read abundance (log10)” value of the first is higher: 2.62 for the first, 1.14 for the second.

“CAGTCGACATGGACCGGTTTTCCCGGTAATCCGTATTTGGG (site CGGTCGACTCC)” and “CCTTTCTCATGGACCGGTTTTCCCGGTAATCCGTATTTGGG (site CCCTTCTCTCC)” are within 0.2 log units of each other in “recombinant UMI read abundance (log10)” value: 0.0115 for the first, 0.0264 for the second.

“AACCGTCCATGGACCGGTTTTCCCGGTAATCCGTATTTGAA (site AACCGTCCTAT)” and “ACATCTACATGGACCGGTTTTCCCGGTAATCCGTATTTGAG (site ACATCTACTCA)” are within 0.2 log units of each other in “recombinant UMI read abundance (log10)” value: 0.0196 for the first, 0.0306 for the second.

Going from “GAAAGTCCATGGACCGGTTTTCCCGGTAATCCGTATTTGTA (site CAAAGTCCTTA)” to “AATCATTCATGGACCGGTTTTCCCGGTAATCCGTATTTGCT (site AATCATTCTAG)”, the “recombinant UMI read abundance (log10)” value rises from 0.821 to 2.27.

“CTGTCGACATGGACCGGTTTTCCCGGTAATCCGTATTTGGG (site CGGTCGACTCC)” and “GCTATTGCATGGACCGGTTTTCCCGGTAATCCGTATTTGCC (site GCTACTGCTGG)” are within 0.2 log units of each other in “recombinant UMI read abundance (log10)” value: 0.012 for the first, 0 for the second.

“TTCGTATCATGGACCGGTTTTCCCGGTAATCCGTATTTGAC (site TTCGTATCTGT)” and “AGAAAGACATGGACCGGTTTTCCCGGTAATCCGTATTTGTA (site AGGAAGACTTG)” are the same in “recombinant UMI read abundance (log10)” value: 0 for the first, 0 for the second.

First: GGTACGTCATGGACCGGTTTTCCCGGTAATCCGTATTTGTT (site GGGACGTCTAA)
Second: CAACCCACATGGACCGGTTTTCCCGGTAATCCGTATTTGAT (site CAACCCACTAT)
The “recombinant UMI read abundance (log10)” value of the first is lower: 0.0133 for the first, 0.946 for the second.

“CTGCATCCATGGACCGGTTTTCCCGGTAATCCGTATTTGTT (site CGGAATCCTAA)” and “GAAAGGCCATGGACCGGTTTTCCCGGTAATCCGTATTTGCA (site GAAGGGCCTTG)” are within 0.2 log units of each other in “recombinant UMI read abundance (log10)” value: 0.00365 for the first, 0 for the second.

First: AGCTAGACATGGACCGGTTTTCCCGGTAATCCGTATTTGGG (site ACCTAGACTCC)
Second: ACGGTATCATGGACCGGTTTTCCCGGTAATCCGTATTTGGG (site ACGGTATCTCC)
The “recombinant UMI read abundance (log10)” value of the first is lower: 0.239 for the first, 1.62 for the second.

Compared with “GACTGGACATGGACCGGTTTTCCCGGTAATCCGTATTTGAC (site GAGTGGACTGT)”, “ATTGAGACATGGACCGGTTTTCCCGGTAATCCGTATTTGGG (site ATTGAGACTAC)” is lower in “recombinant UMI read abundance (log10)” value: 0.438 for the first, 0.0103 for the second.

First: TAGAACACATGGACCGGTTTTCCCGGTAATCCGTATTTGCA (site TAGAACACTTG)
Second: CGTTATCCATGGACCGGTTTTCCCGGTAATCCGTATTTGTT (site CGGAATCCTAA)
The “recombinant UMI read abundance (log10)” value of the first is higher: 2.41 for the first, 0 for the second.

“CGAGGACCATGGACCGGTTTTCCCGGTAATCCGTATTTGGG (site CGAGGCCCTCC)” and “AGGAAGACATGGACCGGTTTTCCCGGTAATCCGTATTTGCA (site AAGAGGACTTG)” are within 0.2 log units of each other in “recombinant UMI read abundance (log10)” value: 0.0207 for the first, 0.101 for the second.

Compared with “CTTCGCTCATGGACCGGTTTTCCCGGTAATCCGTATTTGTA (site CTTCACTCTTA)”, “CGAGGACCATGGACCGGTTTTCCCGGTAATCCGTATTTGGG (site CGAGGTCCTCC)” is lower in “recombinant UMI read abundance (log10)” value: 1.14 for the first, 0.00323 for the second.

Going from “CGATTGGCATGGACCGGTTTTCCCGGTAATCCGTATTTGCT (site CGCTTGGCTAG)” to “GCGCATGCATGGACCGGTTTTCCCGGTAATCCGTATTTGGT (site GTGCATGCTAC)”, the “recombinant UMI read abundance (log10)” value rises from 0 to 0.622.

“CTACTGACATGGACCGGTTTTCCCGGTAATCCGTATTTGGA (site CTACTCACTTC)” and “GTTCGGGCATGGACCGGTTTTCCCGGTAATCCGTATTTGCA (site GTTCGCGCTTG)” are within 0.2 log units of each other in “recombinant UMI read abundance (log10)” value: 0.015 for the first, 0 for the second.

“AACCGTCCATGGACCGGTTTTCCCGGTAATCCGTATTTGAA (site AACCGTCCTTT)” and “GTCCACCCATGGACCGGTTTTCCCGGTAATCCGTATTTGTT (site GTCCACCCTAA)” are within 0.2 log units of each other in “recombinant UMI read abundance (log10)” value: 0.0144 for the first, 0.0175 for the second.

“AGTTAGACATGGACCGGTTTTCCCGGTAATCCGTATTTGAG (site CGTTAGACTCT)” and “ACTAGTGCATGGACCGGTTTTCCCGGTAATCCGTATTTGGT (site ACCAGTGCTAC)” are within 0.2 log units of each other in “recombinant UMI read abundance (log10)” value: 1.06 for the first, 1.02 for the second.

“GTTATAACATGGACCGGTTTTCCCGGTAATCCGTATTTGGC (site GTTAGAACTGC)” and “CGGGAGCCATGGACCGGTTTTCCCGGTAATCCGTATTTGAT (site CGGGAACCTAT)” are the same in “recombinant UMI read abundance (log10)” value: 0 for the first, 0 for the second.

Compared with “GTGGAGCCATGGACCGGTTTTCCCGGTAATCCGTATTTGTG (site GTGGAGTCTCA)”, “CTCTATACATGGACCGGTTTTCCCGGTAATCCGTATTTGAC (site CTCTATACTGT)” is higher in “recombinant UMI read abundance (log10)” value: 1.74 for the first, 2.07 for the second.

“GTGTGCACATGGACCGGTTTTCCCGGTAATCCGTATTTGTA (site GTTTGCACTTA)” and “TAGGCTTCATGGACCGGTTTTCCCGGTAATCCGTATTTGGT (site TAGTCTTCTAC)” are within 0.2 log units of each other in “recombinant UMI read abundance (log10)” value: 0.00854 for the first, 0.0132 for the second.

Going from “GGTCAAACATGGACCGGTTTTCCCGGTAATCCGTATTTGTA (site GGTCAAACTTA)” to “CACTCTTCATGGACCGGTTTTCCCGGTAATCCGTATTTGCC (site CACTCGTCTGG)”, the “recombinant UMI read abundance (log10)” value falls from 0.645 to 0.

First: TAATCACCATGGACCGGTTTTCCCGGTAATCCGTATTTGAG (site TAATCACCTCT)
Second: CAGGTCACATGGACCGGTTTTCCCGGTAATCCGTATTTGTC (site CAGGTCACTGA)
The “recombinant UMI read abundance (log10)” value of the first is lower: 0.0222 for the first, 2.7 for the second.

Going from “CGGATATCATGGACCGGTTTTCCCGGTAATCCGTATTTGCT (site CGGAGATCTAG)” to “CGCGGCCCATGGACCGGTTTTCCCGGTAATCCGTATTTGTT (site CGCGGCCCTAA)”, the “recombinant UMI read abundance (log10)” value rises from 0 to 0.202.

First: TCATAGTCATGGACCGGTTTTCCCGGTAATCCGTATTTGCA (site TCATAGTCTTG)
Second: ACAATCTCATGGACCGGTTTTCCCGGTAATCCGTATTTGCA (site ACAGTATCTTG)
The “recombinant UMI read abundance (log10)” value of the first is higher: 2.25 for the first, 1.54 for the second.

Going from “CAGAAGTCATGGACCGGTTTTCCCGGTAATCCGTATTTGAC (site CAGAAGTCTGT)” to “CTCTACACATGGACCGGTTTTCCCGGTAATCCGTATTTGCT (site CTGTACACTAG)”, the “recombinant UMI read abundance (log10)” value falls from 1.46 to 0.0999.

First: CTCTACACATGGACCGGTTTTCCCGGTAATCCGTATTTGCT (site CTCTACACTAT)
Second: AGCTACGCATGGACCGGTTTTCCCGGTAATCCGTATTTGTC (site AGCTACGCTGA)
The “recombinant UMI read abundance (log10)” value of the first is lower: 0.916 for the first, 2.27 for the second.

Going from “CTGGGACCATGGACCGGTTTTCCCGGTAATCCGTATTTGGT (site CTGGGACCTAC)” to “GAAGAATCATGGACCGGTTTTCCCGGTAATCCGTATTTGTT (site GAAGAATCTAA)”, the “recombinant UMI read abundance (log10)” value rises from 0.0117 to 3.34.

“TAAAGTCCATGGACCGGTTTTCCCGGTAATCCGTATTTGCA (site TAAAGTCCTTT)” and “GCCCCGCCATGGACCGGTTTTCCCGGTAATCCGTATTTGTA (site GCCTCGCCTTA)” are within 0.2 log units of each other in “recombinant UMI read abundance (log10)” value: 0 for the first, 0.00782 for the second.

First: AGAACGGCATGGACCGGTTTTCCCGGTAATCCGTATTTGCT (site AGAACGGCTAG)
Second: CACTTGCCATGGACCGGTTTTCCCGGTAATCCGTATTTGGA (site CACTTGGCTTC)
The “recombinant UMI read abundance (log10)” value of the first is higher: 2.35 for the first, 0.0247 for the second.
